Values of other authors as cited in paper PMC7248880, “Preclinical Incorporation Dosimetry of [^18F]FACH—A Novel ^18F-Labeled MCT1/MCT4 Lactate Transporter Inhibitor for Imaging Cancer Metabolism with PET” (Molecules, 2020).

Key:
[1] = piglet biokinetic data; cited from earlier work
MCT1 = system: MCT1; parameters: method as in PMID 31017677, PMID 31017677; details: cited from earlier work
MCT4 = system: MCT4; parameters: method as in PMID 31017677, PMID 31017677; details: cited from earlier work

Compound	ED, Preclinical [1] [μSv/MBq]	IC50 (MCT1) [nM]	IC50 (MCT4) [nM]
[18F]c1ccc(C2CC3CCCC2N3)cn1 (single isomer, unassigned; (+)) [(+)-[^18F]flubatine]	14.3	–	–
[18F]CC[C@H]1OC2(CCN(Cc3ccccc3)CC2)c2ccccc21 [(R)-(+)-[^18F]fluspidine]	14.0	–	–
FCC[C@@H]1OC2(CCN(Cc3ccccc3)CC2)c2ccccc21 [(S)-(−)-[^18F]fluspidine]	12.9	–	–
[18F]c1ccc([C@@H]2C[C@H]3CCC[C@@H]2N3)cn1 [(−)-[^18F]flubatine]	14.7	–	–
CCCN(CCCF)c1ccc(/C=C(\C#N)C(=O)O)c(OC)c1 [FACH]	–	11	6.5
O=S1(=O)c2ccc([18F])cc2-c2ccc(N3CCN4CCC3CC4)cc21 [[^18F]DBT10]	13.7	–	–
